# Values of other authors, collected in patent US8062679B2, “Composition for maintaining androgen and androgen-like uptake potential by cells” (Northern Innovations and Formulations Corp., priority 2007, dated 2011).
# Read-outs that look alike come from different tables or passages of the source.
# How the values were obtained:
# [1] = human blood
# [2] = tested on: mitochondrial permeability transition
# [3] = tested on: lutenizing hormone (LH); conditions: after exercise, animals
# [4] = fights ROS under low oxygen tension
# [5] = prolonged L-carnitine administration
# [6] = three weeks, equivalent of 2 g elemental carnitine per day; cross-over, placebo controlled
# [7] = target: T1, aromatase (Homo sapiens, UniProt P11511)
# T1 sequence (P11511 1-503): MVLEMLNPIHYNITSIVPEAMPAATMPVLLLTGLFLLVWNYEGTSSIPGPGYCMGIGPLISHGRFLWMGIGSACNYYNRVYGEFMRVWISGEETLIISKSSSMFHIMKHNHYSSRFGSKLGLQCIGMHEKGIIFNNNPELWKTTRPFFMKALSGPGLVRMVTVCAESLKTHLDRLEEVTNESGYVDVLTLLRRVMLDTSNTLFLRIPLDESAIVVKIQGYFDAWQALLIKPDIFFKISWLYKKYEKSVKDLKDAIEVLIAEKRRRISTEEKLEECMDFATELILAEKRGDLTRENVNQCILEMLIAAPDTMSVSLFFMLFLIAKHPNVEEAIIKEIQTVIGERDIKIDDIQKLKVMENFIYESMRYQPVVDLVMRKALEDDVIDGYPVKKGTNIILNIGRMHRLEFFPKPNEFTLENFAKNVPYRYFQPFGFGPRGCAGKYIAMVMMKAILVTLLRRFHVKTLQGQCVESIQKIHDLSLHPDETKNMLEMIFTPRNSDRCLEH
# [8] = tested on: GH; conditions: oral, both 0.5 mg and 5.0 mg
# [9] = tested on: GH
# [10] = tested on: GH; remark: listed apart in the source
compound,measurement,setting,value
"COC1=C(OC)C(=O)C(C/C=C(\C)CC/C=C(\C)CC/C=C(\C)CC/C=C(\C)CC/C=C(\C)CC/C=C(\C)CC/C=C(\C)CC/C=C(\C)CC/C=C(\C)CCC=C(C)C)=C(C)C1=O [CoQ10, ubidecarenone]",antioxidant activity,[1],potent antioxidant
same,exercise duration,"individuals suffering from angina, vs untreated groups",able to exercise for longer periods
same,myocardial function,patients with disease conditions involving energy production deficits,improved
CCCCCCCCCCC1=C(C)C(=O)C(OC)=C(OC)C1=O [Decylubiquinone],redox-dependent mitochondrial permeability transition,[2],effectively block
CC(C)=CCC[C@](C)(O[C@@H]1O[C@H](CO[C@@H]2O[C@H](CO)[C@@H](O)[C@H](O)[C@H]2O)[C@@H](O)[C@H](O)[C@H]1O)[C@H]1CC[C@]2(C)[C@@H]1[C@H](O)C[C@@H]1[C@@]3(C)CC[C@H](O[C@@H]4O[C@H](CO)[C@@H](O)[C@H](O)[C@H]4O[C@@H]4O[C@H](CO)[C@@H](O)[C@H](O)[C@H]4O)C(C)(C)[C@@H]3CC[C@]12C [Ginsenoside Rb1],secretion of lutenizing hormone (LH),[3],stimulate the secretion
COC1=C(OC)C(=O)C(CCCCCCCCCCO)=C(C)C1=O [Idebenone],antioxidant activity,[4],potent antioxidant
C[N+](C)(C)C[C@H](O)CC(=O)[O-] [L-carnitine],pain and damage from eccentric muscular effort,[5],protective effect
"C[N+](C)(C)C[C@H](O)CC(=O)[O-].O=C(O)C(O)C(O)C(=O)O [LCLT, L-carnitine L-tartrate]",muscle damage produced by an acute bout of high-intensity resistance exercise,[6],reduce muscle damage
CCCCC/C=C\C/C=C\CCCCCCCC(=O)O [linoleic],aromatase activity,[7],efficient suppressors
CC/C=C\C/C=C\C/C=C\CCCCCCCC(=O)O [linolenic],aromatase activity,[7],efficient suppressors
"COc1ccc2[nH]cc(CCNC(C)=O)c2c1 [melatonin, N-Acetyl-5-methoxytryptamine]",plasma GH concentrations,[8],significant increase
same,time of peak plasma GH,[8],60 min
same,"GH, area under the curve","[9]; 5.0 mg orally 60 minutes prior to bicycle exercise at 70% VO2max, vs placebo",significant increases
same,time of GH peak following exercise,[9]; 5.0 mg orally 60 minutes prior to exercise,30 min
same,serum free GH following a single bout of heavy-resistance exercise,"[10]; 0.5 and 5.0 mg, weight-trained young males",significantly more effective than placebo
same,serum IGFBP-3,[10]; pre- and post-exercise periods,notable increases
conjugated linoleic acids,aromatase activity,[7],efficient suppressors
